Test results from patent US20240226115A1, “AXL INHIBITOR COMPOUNDS” (ARCUS BIOSCIENCES, INC., priority 2021, published 2024).

Key:
Axl [1] = target: T1, Axl (Homo sapiens, UniProt P30530); experiment: Axl NanoBRET intracellular kinase assay (Cell Binding); set-up: host or cells: HEK-293; conditions: HEK-293 cells transfected with Axl-NanoLuc fusion vector; displacement of K-5 NanoBRET tracer
T1 sequence (P30530 26-894): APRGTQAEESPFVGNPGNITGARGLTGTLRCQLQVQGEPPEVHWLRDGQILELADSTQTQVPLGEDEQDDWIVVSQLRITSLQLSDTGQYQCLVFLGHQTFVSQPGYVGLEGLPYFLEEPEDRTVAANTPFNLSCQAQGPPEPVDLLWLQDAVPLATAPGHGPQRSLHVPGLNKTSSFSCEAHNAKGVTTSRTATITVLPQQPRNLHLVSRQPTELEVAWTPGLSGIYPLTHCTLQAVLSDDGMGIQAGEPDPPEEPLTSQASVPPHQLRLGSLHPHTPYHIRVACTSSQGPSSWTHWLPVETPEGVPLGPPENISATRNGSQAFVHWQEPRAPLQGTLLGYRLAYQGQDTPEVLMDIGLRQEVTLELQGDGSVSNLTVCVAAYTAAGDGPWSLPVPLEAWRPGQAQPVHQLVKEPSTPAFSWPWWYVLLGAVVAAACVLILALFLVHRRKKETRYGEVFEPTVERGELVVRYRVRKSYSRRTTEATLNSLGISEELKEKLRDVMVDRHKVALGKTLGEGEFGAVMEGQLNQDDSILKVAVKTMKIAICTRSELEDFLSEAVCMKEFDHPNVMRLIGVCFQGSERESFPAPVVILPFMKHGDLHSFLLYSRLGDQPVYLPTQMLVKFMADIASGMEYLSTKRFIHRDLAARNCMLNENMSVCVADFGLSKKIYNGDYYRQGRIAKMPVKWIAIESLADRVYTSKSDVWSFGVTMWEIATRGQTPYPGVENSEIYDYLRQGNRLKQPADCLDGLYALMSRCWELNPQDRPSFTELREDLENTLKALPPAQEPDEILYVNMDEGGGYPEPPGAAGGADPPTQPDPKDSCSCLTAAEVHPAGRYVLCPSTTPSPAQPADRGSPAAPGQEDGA
In short: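 Intracellular binding measured as loss of BRET (610 nm/450 nm) when compounds displace 0.35 μM K-5 tracer from Axl-NanoLuc in transfected HEK-293 cells.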

Axl [2] = target: T1, Axl; experiment: HTRF KinEASE-TK biochemical potency, AXL; set-up: purchased Invitrogen; conditions: 5 nM AXL, 700 μM ATP
In short: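 Enzyme preincubated with compound 1 h at RT; final 5 nM AXL or 1 nM TYRO3/MER, 800 nM TK substrate-biotin, 700 μM ATP, HEPES pH 7.4, MgCl2, 1% DMSO, 2 h at RT. HTRF 665/620 ratio read after streptavidin-XL665/cryptate antibody detection; percent activity relative to DMSO and pre-stopped controls.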

Structure (SMILES)	IC50 (Axl [1]) [µM]	IC50 (Axl [2]) [µM]
O=C1NCCOc2cc(-c3n[nH]c4ncc(-c5ccc6c(c5)CCNC6)cc34)ccc21 [Example 54, 8-(5-(1,2,3,4-Tetrahydroisoquinolin-6-yl)-1H-pyrazolo[3,4-b]pyridin-3-yl)-3,4-dihydrobenzo[f][1,4]oxazepin-5(2H)-one]	0.1 to 1	< 0.1
O=C1NCCOc2cc(-c3n[nH]c4ncc(-c5ccc6c(c5)CNCC6)cc34)ccc21 [Example 55, 8-(5-(1,2,3,4-Tetrahydroisoquinolin-7-yl)-1H-pyrazolo[3,4-b]pyridin-3-yl)-3,4-dihydrobenzo[f][1,4]oxazepin-5(2H)-one]	0.1 to 1	< 0.1
C[C@@H]1CCCN1C1CCc2cc(F)c(-c3cnc4[nH]nc(-c5ccc6c(c5)OCCNC6=O)c4c3)cc2CC1 (stereo partly drawn) [Example 58, 8-(5-{3-Fluoro-7-[(2R)-2-methylpyrrolidin-1-yl]-6,7,8,9-tetrahydro-5H-benzo[7]annulen-2-yl}-1H-pyrazolo[3,4-b]pyridin-3-yl)-2,3,4,5-tetrahydro-1,4-benzoxazepin-5-one]	< 0.1	< 0.1
C[C@@H]1CNC(=O)c2ccc(-c3n[nH]c4ncc(-c5ccc6c(c5)CCC(N5CCC[C@H]5C)CC6)cc34)cc2O1 (stereo partly drawn) [Example 59, (2R)-2-Methyl-8-(5-{7-[(2R)-2-methylpyrrolidin-1-yl]-6,7,8,9-tetrahydro-5H-benzo[7]annulen-2-yl}-1H-pyrazolo[3,4-b]pyridin-3-yl)-2,3,4,5-tetrahydro-1,4-benzoxazepin-5-one]	< 0.1	< 0.1
C[C@@H]1CCCN1C1CCc2ccc(-c3cnc4[nH]nc(-c5ccc6c(c5F)OCCNC6=O)c4c3)cc2CC1 (stereo partly drawn) [Example 60, 9-Fluoro-8-(5-{7-[(2R)-2-methylpyrrolidin-1-yl]-6,7,8,9-tetrahydro-5H-benzo[7]annulen-2-yl}-1H-pyrazolo[3,4-b]pyridin-3-yl)-2,3,4,5-tetrahydro-1,4-benzoxazepin-5-one]	< 0.1	< 0.1

Continued, values first:

IC50 (Axl [1]) [µM]	IC50 (Axl [2]) [µM]	Structure (SMILES)
< 0.1	< 0.1	C[C@@H]1CCCN1C1CCc2ccc(-c3cnc4[nH]nc(-c5cc6c(cc5F)C(=O)NCCO6)c4c3)cc2CC1 (stereo partly drawn) [Example 61, 7-Fluoro-8-(5-{7-[(2R)-2-methylpyrrolidin-1-yl]-6,7,8,9-tetrahydro-5H-benzo[7]annulen-2-yl}-1H-pyrazolo[3,4-b]pyridin-3-yl)-2,3,4,5-tetrahydro-1,4-benzoxazepin-5-one]
< 0.1	< 0.1	C[C@@H]1CCCN1C1CCc2ccc(-c3cnc4[nH]nc(-c5ccc6c(c5)O[C@@H](C)CNC6=O)c4c3)cc2CC1 (stereo partly drawn) [Example 62, (2S)-2-Methyl-8-(5-{7-[(2R)-2-methylpyrrolidin-1-yl]-6,7,8,9-tetrahydro-5H-benzo[7]annulen-2-yl}-1H-pyrazolo[3,4-b]pyridin-3-yl)-2,3,4,5-tetrahydro-1,4-benzoxazepin-5-one]
0.1 to 1	< 0.1	O=C1NCCOc2cc(-c3n[nH]c4ncc(-c5ccc6c(n5)CCC(N5CCCC5)CC6)cc34)ccc21 (stereo not shown) [Example 63, 8-{5-[7-(Pyrrolidin-1-yl)-5H,6H,7H,8H,9H-cyclohepta[b]pyridin-2-yl]-1H-pyrazolo[3,4-b]pyridin-3-yl}-2,3,4,5-tetrahydro-1,4-benzoxazepin-5-one]
< 0.1	< 0.1	Cc1cc2c(cc1-c1cnc3[nH]nc(-c4ccc5c(c4)OCCNC5=O)c3c1)CCC(N1CCC[C@H]1C)CC2 (stereo partly drawn) [Example 64, 8-(5-{3-Methyl-7-[(2R)-2-methylpyrrolidin-1-yl]-6,7,8,9-tetrahydro-5H-benzo[7]annulen-2-yl}-1H-pyrazolo[3,4-b]pyridin-3-yl)-2,3,4,5-tetrahydro-1,4-benzoxazepin-5-one]
< 0.1	< 0.1	C[C@@H]1CCCN1C1CCc2cc(-c3cnc4[nH]nc(-c5ccc6c(c5)OCCNC6=O)c4c3)cc(Cl)c2CC1 (stereo partly drawn) [Example 65, 8-(5-{4-Chloro-7-[(2R)-2-methylpyrrolidin-1-yl]-6,7,8,9-tetrahydro-5H-benzo[7]annulen-2-yl}-1H-pyrazolo[3,4-b]pyridin-3-yl)-2,3,4,5-tetrahydro-1,4-benzoxazepin-5-one]
< 0.1	< 0.1	C[C@@H]1CCCN1C1CCc2ccc(-c3cnc4[nH]nc(-c5ccc6c(c5)OCCNS6(=O)=O)c4c3)cc2CC1 (stereo partly drawn) [Example 66, 7-(5-{7-[(2R)-2-Methylpyrrolidin-1-yl]-6,7,8,9-tetrahydro-5H-benzo[7]annulen-2-yl}-1H-pyrazolo[3,4-b]pyridin-3-yl)-3,4-dihydro-2H-5,12,2-benzoxathiazepine-1,1-dione]
